Source: patent US20150038671A1, “Efficient Synthesis of CN2097 and RC7 and Their Analogs” (priority 2013, published 2015)
Starred links: 1 amine or outer side, 2 acyl side, 3 side chain; linkers in the order of their positions; H or OH if unused. Positions of bridges follow the written chain, without caps; N, C: chain ends. Non-standard residues stand in square brackets, D forms with d. Residues, ends and D or L forms follow the SMILES beside them. Chains are numbered I, II in the order given. Dmt = Cc1cc(O)cc(C)c1C[C@H](N)C(=O)O; X1 = O=C(CCN[*:2])[*:1]

test: Plasma stability (T1/2) in the blood plasma, HPLC analysis; assay type: in vitro ADME; details: time by which the compound was degraded by enzyme to the 50% of original amount
Protocol: The stability of CN2097 and Szeto CN2097 derivatives in blood was determined as follows.
The detection limit of CN2097 was measured by HPLC analysis. Various concentrations of CN2097 were prepared in PBS and injected in HPLC and monitored at 214 nm. The HPLC analysis of CN2097 using 50 microliter injection and detecting up to 500 micromolar. The lowest level of detection was at 2 micromolar, corresponding to 0.1 nmole or 237.68 ng (FIG. 13).
The T1/2 is the time by which the compound was degraded by enzyme to the 50% of original amount.

`CC(C)[C@H](NC(=O)[C@@H]1CCC(=O)NCCC(=O)NCCCC[C@H](NC(=O)[C@H](CCCCN)NC(=O)[C@H](Cc2ccc(O)cc2)NC(=O)[C@H](CC(N)=O)NC(=O)[C@H](CCCCN)NC(=O)[C@@H](N)CSSC[C@H](N)C(=O)N[C@@H](CCCNC(=N)N)C(=O)N[C@@H](CCCNC(=N)N)C(=O)N[C@@H](CCCNC(=N)N)C(=O)N[C@@H](CCCNC(=N)N)C(=O)N[C@@H](CCCNC(=N)N)C(=O)N[C@@H](CCCNC(=N)N)C(=O)N[C@@H](CCCNC(=N)N)C(N)=O)C(=O)N[C@@H]([C@@H](C)O)C(=O)N1)C(=O)O` [CN2097] (I: H-CKNYKKTEV-OH / II: H-CRRRRRRR-NH2; disulfide I:1-II:1; linker I:6-I:8 via X1) and `Cc1cc(O)cc(C)c1C[C@H](N)C(=O)N[C@H](CCCNC(=N)N)C(=O)N[C@@H](Cc1ccccc1)C(=O)N[C@@H](CCCCN)C(=O)N[C@@H](CSSC[C@H](N)C(=O)N[C@@H](CCCCN)C(=O)N[C@@H](CC(N)=O)C(=O)N[C@@H](Cc1ccc(O)cc1)C(=O)N[C@@H](CCCCN)C(=O)N[C@H]1CCCCNC(=O)CCNC(=O)CC[C@@H](C(=O)N[C@H](C(=O)O)C(C)C)NC(=O)[C@H]([C@@H](C)O)NC1=O)C(N)=O` [Sezto-CN] (I: H-CKNYKKTEV-OH / II: H-[Dmt][dR]FKC-NH2; disulfide I:1-II:5; linker I:6-I:8 via X1) are within 1.5-fold of each other in half-life: ~48.2 min for the first, ~43.2 min for the second.

With `CC(C)[C@H](NC(=O)[C@@H]1CCC(=O)NCCC(=O)NCCCC[C@H](NC(=O)[C@H](CCCCN)NC(=O)[C@H](Cc2ccc(O)cc2)NC(=O)[C@H](CC(N)=O)NC(=O)[C@H](CCCCN)NC(=O)[C@@H](N)CS)C(=O)N[C@@H]([C@@H](C)O)C(=O)N1)C(=O)O` [CN, Cys-Lys-Asn-Tyr-Lys-[Lys-Thr-Glu(β Ala)]-Val (NH2-CKNYK-[KTE(β-A)]V—OH)] (H-CKNYKKTEV-OH; linker 6-8 via X1) the half-life was ~28 min.
